Test results as given in US11690897B2, “Salt inducible kinase inhibitors for enhancing fertility” (The Board of Trustees of the University of Illinois, priority 2019, dated 2023).

What was measured:
[1] = tested on: SIK; conditions: in vivo; cited from earlier work
[2] = tested on: granulosa cells; assay: In vivo treatment of immature mice with SIK inhibitor before PMSG, granulosa cell mRNA; conditions: immature female mice, 10 mg/kg i.p. 2 h before and with PMSG, 48 hours
Method: (§1) Cyp19a1 mRNA levels were quantified 48 hours later and expressed as relative levels to Rp119. Different letters represent significant differences (mean±SEM, n=5, one-way ANOVA followed by Tukey, p<0.05). FIG. 8B, Immature 23-day-old female mice were injected i.p. with YKL or vehicle (PBS). Two hours later, animals were treated with PMSG or PMSG plus YKL. The expression of CYP19a1, CYP11a1, and STARD1 was quantified 48 hours later. *p<0.05, t-test, n=7.
In vivo Treatment with SIK Inhibitors. […] Controls were injected with 4 IU PMSG alone. granulosa cells were collected 48 hours after PMSG.
(§2) mRNA Quantification. Total RNA was isolated at the end of each experiment using TRIzol™ reagent (Invitrogen) according to the manufacturer's protocol. The isolated RNA was reverse-transcribed using anchored oligo-dT primers (IDT, Coralville, Iowa) and Moloney Murine Leukemia Virus reverse transcriptase (Invitrogen) at 37° C. for 1 hour. The resulting cDNA was diluted with water to a final volume of 100 μl and 5 μl of diluted cDNA was used for each qPCR reaction. Gene expression is reported relative to ribosomal protein L19 mRNA (Rp119).

[3] = tested on: rat granulosa cells; assay: Cyp19a1 (aromatase) mRNA in primary rat granulosa cells, qPCR relative to Rpl19; type: cell-based; conditions: for FSH-stimulation of aromatase (Cyp19a1 mRNA): FSH plus inhibitor vs FSH, 48 hours, rat granulosa cells (rat and mouse)
Method: Cyp19a1 mRNA levels were quantified 48 hours later and expressed as relative levels to ribosomal L19 protein (Rp119).
FIG. 5A, Expression of each SIK isoform in rat granulosa cells exposed to scrambled oligos (shSCR) or anti-SIK1 (shSIK1), SIK2 (shSIK2), or SIK3 (shSIK3) shRNAs. *p<0.05, **p<0.01, t-test, n=3. FIG. 5B, Cyp19a1, STARD1, and CYP11a1 relative mRNA expression levels after exposure to shSCR, shSIK1, shSIK2, or shSIK3. […] FIG. 5C, Inverse correlation between SIK2 knockdown with CYP19a1 expression in rat granulosa cells.
as §1
Rat Granulosa Cells. Rat granulosa cells were isolated from immature rats treated with estradiol for three days. Cells were cultured and treated as described for human granulosa cells. Rat experiments were approved by the Biologic Resources Laboratory (BRL) of the University of Illinois at Chicago.
as §2

[4] = tested on: Mouse granulosa cells; assay: Estradiol production by granulosa cells (ELISA); type: cell-based; conditions: FSH plus inhibitor, 48 hours
Method: Estradiol was determined by ELISA.
Estradiol Measurement. Cell culture medium used for steroid determinations by ELISA (DRG Instruments; RRID: AB_2756386)) following manufacturer's instructions.

[5] = tested on: human granulosa cells; assay: CYP19A1 protein (western blot) in granulosa cells of IVF patients with different etiologies; type: cell-based; conditions: patient with anovulation, HG alone or in the presence of FSH
Excerpt: Primary granulosa cells were obtained from patients with normal ovarian function (left panel) or patients diagnosed with polycystic ovarian syndrome or anovulation (right panel). […] The intensity of the CYP19a1 and BACT bands was quantified, and the data expressed as a ratio between aromatase and BACT. Different letters represent significant differences, one-way ANOVA followed by Tukey test, p<0.05, (n=5).
Human Granulosa Cells. Human cells were collected from the follicular aspirates of women undergoing in vitro fertilization treatment at the University of Illinois at Chicago Fertility Center, under Institute Review Board approval. Informed consents were obtained from all women. […] Cells were transported immediately to the laboratory where they were dispersed by hyaluronidase digestion (8 IU/μl) and then centrifuged at 500×g for 5 minutes. Cells were incubated at room temperature in red blood cell lysis buffer for 2 minutes to eliminate contaminating erythrocytes. The cells were again centrifuged at 500×g for 5 minutes and suspended in 0.5 ml of serum-free DMEM/F12-0.25% BSA medium containing antibiotics. […] To investigate protein expression, cells were plated at a density of 200000 cells/well in 6-well plates coated with reconstituted basement membrane sold under the tradename Matrigel® (DB Biosciences). […] Each data point reflects a result obtained from individual patients. […]

[6] = tested on: primary human granulosa cells; assay: mRNA expression of FSH target genes in primary human granulosa cells; type: cell-based
Excerpt: Different letters represent significant differences (mean±SEM, N≥7, one-way ANOVA followed by Tukey, p<0.05).
Human Granulosa Cells. Human cells were collected from the follicular aspirates of women undergoing in vitro fertilization treatment at the University of Illinois at Chicago Fertility Center, under Institute Review Board approval. Informed consents were obtained from all women. In a subset of patients, additional information was collected to compare the effect of SIK inhibition in patients with different etiologies. Cells were transported immediately to the laboratory where they were dispersed by hyaluronidase digestion (8 IU/μl) and then centrifuged at 500×g for 5 minutes. Cells were incubated at room temperature in red blood cell lysis buffer for 2 minutes to eliminate contaminating erythrocytes. The cells were again centrifuged at 500×g for 5 minutes and suspended in 0.5 ml of serum-free DMEM/F12-0.25% BSA medium containing antibiotics. To investigate mRNA expression, cells were plated at a density of 30000 cells/well in 24-well plates coated with reconstituted basement membrane sold under the tradename Matrigel® (DB Biosciences). To investigate protein expression, cells were plated at a density of 200000 cells/well in 6-well plates coated with reconstituted basement membrane sold under the tradename Matrigel® (DB Biosciences). […] Each data point reflects a result obtained from individual patients. Cells from each patient were cultured separately.
as §2

SMILES	Phosphorylation of a known SIK substrate [1]	Cyp11a1 mRNA induction by PMSG [2]	Stimulatory effect of PMSG on Cyp19a1 mRNA [2]	Stimulatory effect of PMSG on Stard1 mRNA [2]	FSH-stimulation of aromatase (Cyp19a1 mRNA) [3]	Stimulation of estradiol production by FSH [4]	CYP19A1 levels [5]	IGF2 mRNA expression, FSH plus inhibitor vs FSH alone ([6]; 48 hours)	IGF2 mRNA levels, inhibitor alone vs controls ([6]; absence of FSH)	CYP11A1 mRNA levels, inhibitor alone ([6]; no FSH)	STARD1 mRNA levels, inhibitor alone ([6]; no FSH)	Cyp19a1 mRNA levels, inhibitor alone ([3]; absence of FSH, HG at 1 or 3 μM)	CYP19A1 mRNA levels, increase vs FSH only ([6]; FSH plus inhibitor, n=16 patients, P<0.0001)	CYP19A1 mRNA levels, inhibitor alone ([6]; no FSH)
COc1ccc(N2C(=O)N(c3c(C)cccc3Cl)Cc3cnc(Nc4ccc(C5CCN(C)CC5)cc4OC)nc32)nc1 [YKL-05-099]	reduces phosphorylation of a known SIK substrate	only a trend to increase Cyp11a1 mRNA induction	enhanced the stimulatory effect of PMSG on Cyp19a1 and Stard1 significantly	enhanced the stimulatory effect of PMSG on Cyp19a1 and Stard1 significantly	enhances the stimulatory effect of FSH on Cyp19a1 mRNA expression in a concentration-dependent manner	–	–	–	–	–	–	–	–	–
COc1ccc(N(C(=O)Nc2c(C)cccc2C)c2cc(Nc3ccc(N4CCN(C)CC4)cc3)ncn2)c(OC)c1 [HG-9-91-01]	–	–	–	–	potentiated FSH-stimulation of aromatase in a concentration-dependent manner	potentiated the stimulation of estradiol production by FSH in a dose-dependent manner	stimulated CYP19A1 strongly	tended to be higher	increased IGF2 mRNA levels significantly	enough to increase STARD1 and CYP11A1 mRNA levels	enough to increase STARD1 and CYP11A1 mRNA levels	increased Cyp19a1 mRNA levels	–	–
O=C(NCCCNc1nc(Nc2cccc(CN3CCOCC3)c2)ncc1C1CC1)C1CCC1 [MRT67307]	–	–	–	–	Comparable findings	potentiated the stimulation of estradiol production by FSH in a dose-dependent manner	–	–	–	–	–	–	3 fold	did not affect CYP19A1 mRNA levels
